How the values were obtained:
[1] = target: T1, IRAK4 (Homo sapiens (Human), UniProt Q9NWZ3); assay: Biochemical Z'-Lyte FRET assay for IRAK4 kinase inhibition; conditions: 2 nM enzyme, 1 mM ATP, 2 μM substrate
Experimental: Biochemical Assay for IRAK4 Kinase Inhibition.
A Z′-Lyte assay based on a fluorescence resonance energy transfer (FRET) readout was developed for measuring IRAK4-dependent phosphorylation of a FRET-peptide substrate as described by Thermo Fisher Scientific (Grand Island, N.Y.). At a starting concentration of 1.5 mM, the identified compounds were serially diluted with 100% dimethyl sulfoxide (DMSO) in 3-fold increments, into Greiner bio-one 96-well plates (cat. #: 650201, Greiner bio-one, Monroe, N.C.). Compounds were then transferred to intermediate Greiner bio-one 96-well plates and diluted 10-fold with Kinase assay buffer (25 mM HEPES, pH 7.5, 10 mM MgCl2, 10 mM MnCl2, 1 mM EGTA, and 0.01% Brij-35, 2 mM DTT). Three μL of the serially diluted compounds were then transferred in duplicate to low-volume 384-well black proxiplates (cat. #: 6008269; Perkin Elmer, Akron, Ohio), to give duplicate twelve-point concentration curves. Six μl of a 2.5× solution of IRAK4 enzyme (cat #: 40064, BPS Bioscience, San Diego, Calif.) in kinase buffer was added to each well, followed by a 10 minutes pre-incubation step. Reactions were initiated by adding 6 μl of a 2.5× substrate mix of ATP and Z′-Lyte Ser/Thr 7 peptide (cat. #: PV3180, Thermo Fisher Scientific, Grand Island, N.Y.) and proceeded at room temperature for 1 hour. The final concentration of key reagents in the 15 uL kinase reactions were 2 μM substrate, 2 nM enzyme, and 1 mM ATP, with dose responses starting at 30 μM compound. At the end of the kinase reactions, 5 μl of developing solution (as instructed in for cat. #: PV3180, Thermo Fisher Scientific, Grand Island, N.Y.) was added to each well and incubated at room temperature for 1 hour. All wells were read on an Envision 2105 Multilabel fluorescence plate reader (Perkin Elmer, Waltham, Mass.) at 400 nm excitation and 460 nm/530 nm emission. Plus and minus 100% inhibition controls were used to calculate percent inhibition and IC50 curves were generated using Graphpad Prism (La Jolla, Calif.).

[2] = target: T1, IRAK4; assay: Western blot assay for assessing degradation of IRAK4 in MCF7 cells; format: cell-based; conditions: Table 5, IRAK4 degradation, 24 hour incubation, read-out: IRAK4 DC50
Experimental: Western Blot Assay for Assessing Degradation of IRAK4.
MCF7 cells, purchased from ATCC (Manassas, Va.), were used at a passage range of 2-19. Cells were seeded at 50% confluency in 96-well plates at 180 μl/well in cell media (Dulbecco's Modified Eagle medium/nutrient F-12 Ham-10% Fetal Bovine Serum) and incubated overnight. The next morning, compounds were serially diluted and added (20 μl into 180 μl media) at a final DMSO concentration of 0.1%. Cells were rinsed with cell media and replaced with compounds in media, followed by incubation overnight. After a 24 hour incubation with compound, cell were harvested (90-100% confluent at harvest). Cells were then washed once with 100 μl of Dulbecco's hosphate-buffered saline and then lysed with 40 μl of lysis buffer (1×RIPA+HALT protease inhibitor+HALT phosphatase inhibitor) on ice for 10 minutes. Lysates were then cleaned by filtration in 1.2 µm filter plates followed by western blotting. For each sample, 30 μl of lysate were added to 10 μl of 4×LDS sample buffer, then denatured at 95° C. for 5 minutes in the thermal cycler and placed on ice. Fifteen μL of each sample were then loaded on 4-15% Tris/Glycine gels and run for 25 minutes at 250 (constant) volts in 1× Tris/Glycine buffer. Protein was transferred from gels to nitrocellulose using a BioRad Turbo dry-transfer unit with the Turbo/midi default program. All blots were rinsed with ddH2O and blocked for 1 hour at room temperature in 5% bovine serum albumin (BSA) in tris-buffered saline-Tween 20 (TBS-T) (0.1%) on rocker. Blots were exposed to primary antibody in 5% BSA in TBS-T (0.1%) overnight at 4° C. on rocker. Primary antibodies, diluted 1:1000 in […], were as follows: anti-IRAK4 (cat. #: ab119942, Abcam, Cambridge, Mass.), anti-IRAK1 (cat. #: CST 4504S, Cell Signaling Technology, Danvers, Mass.), and anti-Beta-actin (Cat. #: ab8227, Abcam, Cambridge, Mass.). Blots were then washed with TBS-T (0.1%) three times for 5 minutes on a rocker at room temperature. Secondary antibody (1:18,000 anti-rabbit-HRP and/or anti-mouse-HRP in 5% BSA in TBST (0.1%) was then added, and blots incubated at room temperature rocker for 1 hour. Blots were washed 3 times in TBS-T (0.1%) for 5 minutes at room temperature on the rocker. Signal was developed with Femto Max substrate for 5 minutes and blots read on a ChemiDoc. Percent degradation was assessed by comparing IRAK4 signal in compound vs. DMSO treated lysates.

T1 sequence (Q9NWZ3 whole entry): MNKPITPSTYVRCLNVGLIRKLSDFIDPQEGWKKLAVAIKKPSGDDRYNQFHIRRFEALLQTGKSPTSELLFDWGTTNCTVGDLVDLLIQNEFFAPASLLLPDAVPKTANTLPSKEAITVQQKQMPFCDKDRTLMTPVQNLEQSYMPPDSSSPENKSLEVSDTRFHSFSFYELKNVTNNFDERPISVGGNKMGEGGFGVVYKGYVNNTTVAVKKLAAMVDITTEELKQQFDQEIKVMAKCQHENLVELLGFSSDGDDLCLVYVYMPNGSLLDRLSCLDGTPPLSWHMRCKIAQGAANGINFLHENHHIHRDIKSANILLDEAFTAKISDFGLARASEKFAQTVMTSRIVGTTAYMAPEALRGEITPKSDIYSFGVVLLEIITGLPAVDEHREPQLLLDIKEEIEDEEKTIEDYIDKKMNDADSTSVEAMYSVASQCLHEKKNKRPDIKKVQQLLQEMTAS

Row | Compound | IC50 [1] [nM] | DC50 [2] [nM]
1 | N#Cc1ccc2ncnc(N[C@H]3CC[C@H](N4CCN(CCOCCOCCOCCOc5ccc6c(c5)C(=O)N(C5CCC(=O)NC5=O)C6=O)CC4)CC3)c2c1 (stereo partly shown) [compound 32] | ≥ 1000 | ≥ 1000
2 | N#Cc1ccc2ncnc(N[C@H]3CC[C@H](N4CCN(CCOCCOCCOCCOCCOc5ccc6c(c5)C(=O)N(C5CCC(=O)NC5=O)C6=O)CC4)CC3)c2c1 (stereo partly shown) [compound 33] | ≥ 1000 | ≥ 1000
3 | N#Cc1ccc2ncnc(N[C@H]3CC[C@H](N4CCN(S(=O)(=O)CCOCCOc5ccc6c(c5)C(=O)N(C5CCC(=O)NC5=O)C6=O)CC4)CC3)c2c1 (stereo partly shown) [compound 34] | ≥ 1000 | ≥ 1000
4 | N#Cc1ccc2ncnc(N[C@H]3CC[C@@H](N4CCN(S(=O)(=O)CCOCCOc5ccc6c(c5)C(=O)N(C5CCC(=O)NC5=O)C6=O)CC4)CC3)c2c1 (stereo partly shown) [compound 35] | ≥ 1000 | ≥ 1000
5 | N#Cc1ccc2ncnc(N[C@H]3CC[C@H](N4CCN(S(=O)(=O)CCOCCOCCOc5ccc6c(c5)C(=O)N(C5CCC(=O)NC5=O)C6=O)CC4)CC3)c2c1 (stereo partly shown) [compound 36] | ≥ 1000 | ≥ 1000
6 | N#Cc1ccc2ncnc(N[C@H]3CC[C@H](N4CCN(S(=O)(=O)CCOCCOCCOCCOCCOc5ccc6c(c5)C(=O)N(C5CCC(=O)NC5=O)C6=O)CC4)CC3)c2c1 (stereo partly shown) [compound 40] | ≥ 1000 | ≥ 1000
7 | N#Cc1ccc2ncnc(N[C@H]3CC[C@@H](N4CCN(S(=O)(=O)CCOCCOCCOCCOCCOc5ccc6c(c5)C(=O)N(C5CCC(=O)NC5=O)C6=O)CC4)CC3)c2c1 (stereo partly shown) [compound 41] | ≥ 1000 | ≥ 1000
8 | O=C1CCC(N2C(=O)c3ccc(OCCOCCOC[C@H]4CC[C@@H](n5c(NC(=O)c6cccc(C(F)(F)F)c6)nc6cc(CN7CCCCC7)ccc65)CC4)cc3C2=O)C(=O)N1 (stereo partly shown) [compound 44, N-(1-((1s,4s)-4-((2-(2-((2-(2,6-dioxopiperidin-3-yl)-1,3-dioxoisoindolin-5-yl)oxy)ethoxy)ethoxy)methyl)cyclohexyl)-5-(piperidin-1-ylmethyl)-1H-benzo[d]imidazol-2-yl)-3-(trifluoromethyl)benzamide] | ≥ 1000 | ≥ 1000
9 | O=C1CCC(N2C(=O)c3ccc(OCCOCCOC[C@H]4CC[C@@H](n5c(NC(=O)c6cccc(C(F)(F)F)c6)nc6cc(F)ccc65)CC4)cc3C2=O)C(=O)N1 (stereo partly shown) [compound 46, N-(1-((1s,4s)-4-((2-(2-((2-(2,6-dioxopiperidin-3-yl)-1,3-dioxoisoindolin-5-yl)oxy)ethoxy)ethoxy)methyl)cyclohexyl)-5-fluoro-1H-benzo[d]imidazol-2-yl)-3-(trifluoromethyl)benzamide] | ≥ 1000 | ≥ 1000
10 | O=C1CCC(N2C(=O)c3ccc(OCCOCCOCCOC[C@H]4CC[C@@H](n5c(NC(=O)c6cccc(C(F)(F)F)c6)nc6cc(F)ccc65)CC4)cc3C2=O)C(=O)N1 (stereo partly shown) [compound 47, N-(1-((1s,4s)-4-((2-(2-(2-((2-(2,6-dioxopiperidin-3-yl)-1,3-dioxoisoindolin-5-yl)oxy)ethoxy)ethoxy)ethoxy)methyl)cyclohexyl)-5-fluoro-1H-benzo[d]imidazol-2-yl)-3-(trifluoromethyl)benzamide] | ≥ 1000 | ≥ 1000
11 | O=C1CCC(N2C(=O)c3ccc(OCCOCCOCCOCCOC[C@H]4CC[C@@H](n5c(NC(=O)c6cccc(C(F)(F)F)c6)nc6cc(F)ccc65)CC4)cc3C2=O)C(=O)N1 (stereo partly shown) [compound 48, N-(1-((1s,4s)-4-(13-((2-(2,6-dioxopiperidin-3-yl)-1,3-dioxoisoindolin-5-yl)oxy)-2,5,8,11-tetraoxatridecyl)cyclohexyl)-5-fluoro-1H-benzo[d]imidazol-2-yl)-3-(trifluoromethyl)benzamide] | ≥ 1000 | ≥ 1000
12 | CN(CCOCCOCCOc1ccc2c(c1)C(=O)N(C1CCC(=O)NC1=O)C2=O)c1cccc(-n2c(NC(=O)c3cccc(C(F)(F)F)c3)nc3cc(F)ccc32)c1 (stereo not shown) [compound 49, N-(1-(3-((2-(2-(2-((2-(2,6-dioxopiperidin-3-yl)-1,3-dioxoisoindolin-5-yl)oxy)ethoxy)ethoxy)ethyl) (methyl)amino)phenyl)-5-fluoro-1H-benzo[d]imidazol-2-yl)-3-(trifluoromethyl)benzamide] | ≥ 1000 | ≥ 1000
13 | CN(CCOc1ccc2c(c1)C(=O)N(C1CCC(=O)NC1=O)C2=O)c1cccc(-n2c(NC(=O)c3cccc(C(F)(F)F)c3)nc3cc(F)ccc32)c1 (stereo not shown) [compound 50, N-(1-(3-((2-((2-(2,6-dioxopiperidin-3-yl)-1,3-dioxoisoindolin-5-yl)oxy)ethyl)(methyl)amino)phenyl)-5-fluoro-1H-benzo[d]imidazol-2-yl)-3-(trifluoromethyl)benzamide] | ≥ 1000 | ≥ 1000
14 | CN(CCOCCOc1ccc2c(c1)C(=O)N(C1CCC(=O)NC1=O)C2=O)c1cccc(-n2c(NC(=O)c3cccc(C(F)(F)F)c3)nc3cc(F)ccc32)c1 (stereo not shown) [compound 51, N-(1-(3-((2-(2-((2-(2,6-dioxopiperidin-3-yl)-1,3-dioxoisoindolin-5-yl)oxy)ethoxy)ethyl)(methyl)amino)phenyl)-5-fluoro-1H-benzo[d]imidazol-2-yl)-3-(trifluoromethyl)benzamide] | ≥ 1000 | ≥ 1000
15 | CN(CCOCCOCCOCCOc1ccc2c(c1)C(=O)N(C1CCC(=O)NC1=O)C2=O)c1cccc(-n2c(NC(=O)c3cccc(C(F)(F)F)c3)nc3cc(F)ccc32)c1 (stereo not shown) [compound 52, N-(1-(3-((2-(2-(2-(2-((2-(2,6-dioxopiperidin-3-yl)-1,3-dioxoisoindolin-5-yl)oxy)ethoxy)ethoxy)ethoxy)ethyl)(methyl)amino)phenyl)-5-fluoro-1H-benzo[d]imidazol-2-yl)-3-(trifluoromethyl)benzamide] | ≥ 1000 | ≥ 1000
16 | O=C1CCC(N2C(=O)c3ccc(OCCOCCOCCN4CCN(Cc5ccc6c(c5)nc(NC(=O)c5cccc(C(F)(F)F)c5)n6-c5ccccc5)CC4)cc3C2=O)C(=O)N1 (stereo not shown) [compound 53, N-(5-((4-(2-(2-(2-((2-(2,6-dioxopiperidin-3-yl)-1,3-dioxoisoindolin-5-yl)oxy)ethoxy)ethoxy)ethyl)piperazin-1-yl)methyl)-1-phenyl-1H-benzo[d]imidazol-2-yl)-3-(trifluoromethyl)benzamide] | ≥ 1000 | ≥ 1000
17 | COc1cccc(-n2c(NC(=O)c3cccc(C(F)(F)F)c3)nc3cc(CN4CCN(CCOCCOCCOc5ccc6c(c5)C(=O)N(C5CCC(=O)NC5=O)C6=O)CC4)ccc32)c1 (stereo not shown) [compound 54, N-(5-((4-(2-(2-(2-((2-(2,6-dioxopiperidin-3-yl)-1,3-dioxoisoindolin-5-yl)oxy)ethoxy)ethoxy)ethyl)piperazin-1-yl)methyl)-1-(3-methoxyphenyl)-1H-benzo[d]imidazol-2-yl)-3-(trifluoromethyl)benzamide] | ≥ 1000 | ≥ 1000

Reference: patent US11065231B2, “Compounds and methods for the targeted degradation of interleukin-1 receptor- associated kinase 4 polypeptides” (Arvinas Operations, Inc., priority 2017, dated 2021)
